For series [1], the system named is bio-indicator mold. Particulars: reported by the manufacturer of DMDC; cited from earlier work.
For series [2], the system named is Aspergillus (Pepsi Isolate). The experiment in a line: 16 week mold spore challenge MIC in beverage. It counts as cell-based, Aspergillus niger. Particulars: pH 3.4, read-out: 16 week incubation MIC (ppm). An excerpt: (§1) A 2% fruit juice based non-carbonated beverage of pH 3.4 and about 12 Brix was formed by combining the following ingredients.
(§2) The preparation of beverage was divided into two aliquots.
(§3) Each of 24 such preparations was then divided equally across 8 separate tubes making for 192 samples. […] The tubes were sealed in a manner that prohibits moisture evaporation.
(§4) The mold spores employed were obtained from the following organisms. Aspgergillus niger isolate of Pepsi; ATCC strain 90900 (Talaromyces spectabilis), ATCC strain 48441 (Pencillium galbrum), ATCC 24088 (Byssochlamys fulva), ATCC 96468 (Neosartorva fischeri) ATCC strain 96463 (Talaromyces flavus) and ATCC strain ATCC 10512 (Talaromyces flavus var. flavus). Each spore type was present at 20 spores per milliliter.

The test system of series [3] is Penicillium glabrum ATCC 48441. The experiment in a line: 16 week mold spore challenge MIC in beverage. Particulars: ATCC48441, pH 3.4, read-out: 16 week incubation MIC (ppm). It counts as cell-based.
Description: as §1, §2, §3, §4

The test system of series [4] is Talaromyces spectabilis ATCC 90900. The experiment in a line: 16 week mold spore challenge MIC in beverage. It counts as cell-based. Particulars: Paecilomyces variotii, ATCC90900, pH 3.4; read-out: 16 week incubation MIC (ppm).
Description: as §1, §2, §3, §4

The test system of series [5] is Byssochlamys fulva ATCC 24088. The experiment in a line: 16 week mold spore challenge MIC in beverage. It is filed as cell-based. Particulars: Paecilomyces fulvus, ATCC 10099 / ATCC 24088, pH 3.4; read-out: 16 week incubation MIC (ppm).
Description: as §2, §3, §4
(§5) The second aliquot of beverage is identical to the 1st aliquot except for the presence of cyclodextrin-pimaricin complex. […] Each of 36 such preparations was then divided equally across 8 separate tubes making for 288 samples. […] The tubes were sealed in a manner that prohibits moisture evaporation.
(§6) The mold spores employed were obtained from the following organisms Paecilomyces puntoni (Pepsi isolate D3), ATCC 36614 (Byssochlamys nieva) ATCC 24088 (Byssochlamys fulva), ATCC 96468 (Neosartorya fischeri) ATCC strain 96463 (Talaromyces flavus) and ATCC strain ATCC 10512 (Talaromyces flavus var. flavus). Each spore type was present initially at 20 spores per milliliter of product. Spores for Byssochlamys nieva were developed at both 25° C. on Potato Dextrose and 30° C. on Malt Extract in order to ensure some variation in the ratio of asci (ascospores) to conidiospores. […]
(§7) One sample remained un-inoculated and served as a negative control. […] These samples served as the positive controls in this test. […]
(§8) After inoculation with spores from various mold, samples were incubated at 25-27° C. for a period of 16 weeks before.
(§9) As outlined previously, two separate aliquots of beverage were formulated, one containing Pimaricin in complex with g-cyclodextrin and one without. Both aliquots contained 30 ppm Cinnamic acid.

Series [6] concerns Neosartorya fischeri ATCC 96468. In words: 16 week mold spore challenge MIC in beverage. Particulars: Aspergillus fischeri, ATCC96468, pH 3.4; read-out: 16 week incubation MIC (ppm). It is filed as cell-based.
Description: as §2, §3, §4, §5, §6, §7, §8, §9

The test system of series [7] is Talaromyces flavus ATCC 96463. The experiment in a line: 16 week mold spore challenge MIC in beverage. It counts as cell-based. Particulars: ATCC96463, pH 3.4, read-out: 16 week incubation MIC (ppm).
Description: as §2, §3, §4, §5, §6, §7, §8, §9

Series [8] concerns Talaromyces flavus var. flavus ATCC 10512. The experiment in a line: 16 week mold spore challenge MIC in beverage. It is filed as cell-based. Particulars: ATCC10512, pH 3.4, read-out: 16 week incubation MIC (ppm).
Description: as §2, §3, §4, §5, §6, §7, §8, §9

Series [9] in a line: physchem. It counts as physicochemical.
Series [10] relates to bio-indicator mold. In words: Preservation of beverage for 16 weeks against the array of bio-indicator / spoilage organisms. It is filed as cell-based.
Description: As used herein, the terms “preserve,” “preservative,” and “preservation” refer to a food or beverage product protected against or a composition able to stop or completely prevent spoilage of a product that is the result of the growth of spoilage microorganisms for a period of at least 16 weeks. This period is in keeping with the time required to transport a beverage product from location of manufacture, through distribution channels, into the hand of the consumer. Absence of spoilage is noted by absence any evidence of growth of spoilage organisms (turbidity, viable count, direct microscopic count or other standard methods of enumeration) and by the absence of any discernable change in the product attributes that could be routinely attributed to metabolism of spoilage organisms.
as §3, §5
An apple juice based beverage was prepared to contain 30 ppm EDTA (0.003%) as shown below. The beverage was divided into two aliquots. […]

The conditions of series [11]: 25° C., pH approximately 6.4; cited from earlier work.
The conditions of series [12]: purportedly; cited from earlier work.

The values that follow come from US8425968B2, “Beverage preservative system containing pimaricin-cyclodextrin complex” (PepsiCo., Inc., priority 2009, dated 2013).

Structures are written as SMILES. ≈ marks a conversion by molar mass, not a printed value.

In general, MIC refers to the smallest concentration in the dilution series that meets the test's criterion for growth inhibition. What is called solubility is the concentration that dissolves in the medium under given conditions. Lower therefore signals little dissolved substance.

For `COC(=O)OC(=O)OC` [DMDC, Dimethyl dicarbonate], the “concentration required to stabilize beverage for 16 weeks against vegetative yeast, mold and bacteria” value in series [1] was “at least 250 mg/liter”.

Regarding `CC1O[C@@H](O[C@H]2/C=C/C=C/C=C/C=C/C[C@@H](C)OC(=O)/C=C/[C@H]3O[C@@H]3C[C@H](O)C[C@]3(O)C[C@H](O)[C@@H](C(=O)O)[C@H](C2)O3)C(O)C(N)[C@@H]1O` (stereo partly drawn) [Pimaricin], the MIC in series [2] was 18.4 µg/mL (≈ 27.6 µM); in [3], 5.7 µg/mL (≈ 8.56 µM); in [4] it was 10.3 µg/mL (≈ 15.5 µM); in [5], 16.9 µg/mL (≈ 25.4 µM); in series [6], greater than 20 µg/mL; in [7] it was greater than 20 µg/mL. The MIC in [8] was greater than 20 µg/mL. Also, the concentration in solution in series [9] (4 °C, pH 3.4, aqueous buffer, thermodynamic from solid) (solubility) was 10 µg/mL (≈ 15 µM). This molecule also returned a solubility at 24 h in [9] (25 °C, pH 3.4, aqueous buffer, thermodynamic from solid) of 20 µg/mL (≈ 30 µM). Moreover, in series [9] (pH 3.4), the “solubility limit in high acid beverage” value was roughly 10 ppm. In addition, the “mold able to grow at highest concentration in solution” value in series [10] (20.0 ppm un-complexed Pimaricin, apple juice beverage pH 3.4) is recorded as greater than 50%. Further, the “minimum initial stand alone concentration needed to preserve product for 16 weeks” value in series [10] (stand alone) is 400 mg pimaricin per liter. Besides, in [11], the “solubility in pure water” value was 52 µg/mL (≈ 78.1 µM). In addition, in series [12], the “pKa of carboxylic acid group” value is recorded as roughly 6.5.
